This passage reports IC50 results from ChEMBL document CHEMBL1649448, “Atorvastatin is a promising partner for antimalarial drugs in treatment of Plasmodium falciparum malaria” (Antimicrob Agents Chemother, 2009).

Type in all cases: functional, organism-based
Experiment [1] relates to Plasmodium falciparum. The experiment can be described thus: Antimalarial activity against Plasmodium falciparum IMT K4 assessed as incorporation of [3H]hypoxanthine after 48 hrs by scintillation counter.
For experiment [2], the system named is Plasmodium falciparum. The experiment can be described thus: Antimalarial activity against Plasmodium falciparum IMT K2 assessed as incorporation of [3H]hypoxanthine after 48 hrs by scintillation counter.
In experiment [3] the test system is Plasmodium falciparum. The experiment can be described thus: Antimalarial activity against Plasmodium falciparum IMT Bres assessed as incorporation of [3H]hypoxanthine after 48 hrs by scintillation counter.
The test system of experiment [4] is Plasmodium falciparum. The experiment can be described thus: Antimalarial activity against Plasmodium falciparum IMT 9881 assessed as incorporation of [3H]hypoxanthine after 48 hrs by scintillation counter.
Experiment [5] has as its system Plasmodium falciparum. The experiment is described as follows: Antimalarial activity against Plasmodium falciparum IMT 10500 assessed as incorporation of [3H]hypoxanthine after 48 hrs by scintillation counter.
Experiment [6] deals with Plasmodium falciparum. The experiment can be described thus: Antimalarial activity against Plasmodium falciparum IMT 8425 assessed as incorporation of [3H]hypoxanthine after 48 hrs by scintillation counter.
Experiment [7] relates to Plasmodium falciparum. The experiment is described as follows: Antimalarial activity against Plasmodium falciparum IMT 31 assessed as incorporation of [3H]hypoxanthine after 48 hrs by scintillation counter.
The subject of experiment [8] is Plasmodium falciparum. The experiment can be described thus: Antimalarial activity against Plasmodium falciparum IMT 10336 assessed as incorporation of [3H]hypoxanthine after 48 hrs by scintillation counter.
Experiment [9] relates to Plasmodium falciparum. The experiment is described as follows: Antimalarial activity against Plasmodium falciparum FCR3 assessed as incorporation of [3H]hypoxanthine after 48 hrs by scintillation counter.
Experiment [10] has as its system Plasmodium falciparum. The experiment is described as follows: Antimalarial activity against Plasmodium falciparum HB3 assessed as incorporation of [3H]hypoxanthine after 48 hrs by scintillation counter.
Experiment [11] relates to Plasmodium falciparum. The experiment is described as follows: Antimalarial activity against Plasmodium falciparum IMT A4 assessed as incorporation of [3H]hypoxanthine after 48 hrs by scintillation counter.
In experiment [12] the test system is Plasmodium falciparum. The experiment is described as follows: Antimalarial activity against Plasmodium falciparum IMT 16332 assessed as incorporation of [3H]hypoxanthine after 48 hrs by scintillation counter.
In experiment [13] the test system is Plasmodium falciparum. The experiment can be described thus: Antimalarial activity against Plasmodium falciparum IMT Vol assessed as incorporation of [3H]hypoxanthine after 48 hrs by scintillation counter.
For experiment [14], the system named is Plasmodium falciparum. The experiment can be described thus: Antimalarial activity against Plasmodium falciparum IMT K14 assessed as incorporation of [3H]hypoxanthine after 48 hrs by scintillation counter.
Experiment [15] relates to Plasmodium falciparum. The experiment can be described thus: Antimalarial activity against Plasmodium falciparum IMT L1 assessed as incorporation of [3H]hypoxanthine after 48 hrs by scintillation counter.
Experiment [16] concerns Plasmodium falciparum. The experiment is described as follows: Antimalarial activity against Plasmodium falciparum IMT Guy assessed as incorporation of [3H]hypoxanthine after 48 hrs by scintillation counter.
In experiment [17] the test system is Plasmodium falciparum. The experiment is described as follows: Antimalarial activity against Plasmodium falciparum 106/1 assessed as incorporation of [3H]hypoxanthine after 48 hrs by scintillation counter.
Experiment [18] concerns Plasmodium falciparum. The experiment is described as follows: Antimalarial activity against Plasmodium falciparum FCM29 assessed as incorporation of [3H]hypoxanthine after 48 hrs by scintillation counter.
The test system of experiment [19] is Plasmodium falciparum. The experiment is described as follows: Antimalarial activity against Plasmodium falciparum D6 assessed as incorporation of [3H]hypoxanthine after 48 hrs by scintillation counter.
Experiment [20] has as its system Plasmodium falciparum. The experiment is described as follows: Antimalarial activity against Plasmodium falciparum W2 assessed as incorporation of [3H]hypoxanthine after 48 hrs by scintillation counter.
In experiment [21] the test system is Plasmodium falciparum. The experiment can be described thus: Antimalarial activity against Plasmodium falciparum PA assessed as incorporation of [3H]hypoxanthine after 48 hrs by scintillation counter.
In experiment [22] the test system is Plasmodium falciparum. The experiment can be described thus: Antimalarial activity against Plasmodium falciparum 3D7 assessed as incorporation of [3H]hypoxanthine after 48 hrs by scintillation counter.

The IC50 is the concentration at which inhibition is half-maximal. For `C[C@H]1[C@@H](O)O[C@@H]2O[C@@]3(C)CC[C@H]4[C@H](C)CC[C@@H]1[C@@]24OO3` [ARTENIMOL], the IC50 with Plasmodium falciparum [1], with Plasmodium falciparum [2], in the experiment with Plasmodium falciparum [3], in the experiment with Plasmodium falciparum [4], in the experiment on Plasmodium falciparum [5] and with Plasmodium falciparum [6] was 0.9 nM each time. The IC50 in the experiment with Plasmodium falciparum [7], in the experiment on Plasmodium falciparum [8], in the experiment on Plasmodium falciparum [9], in the experiment on Plasmodium falciparum [10], in the experiment with Plasmodium falciparum [11] and with Plasmodium falciparum [12] was 0.9 nM each time. The concentration for half-maximal inhibition (IC50) with Plasmodium falciparum [13], in the experiment with Plasmodium falciparum [14], in the experiment on Plasmodium falciparum [15], in the experiment with Plasmodium falciparum [16], in the experiment on Plasmodium falciparum [17] and in the experiment with Plasmodium falciparum [18] was 0.9 nM throughout. For the same molecule, the IC50 in the experiment with Plasmodium falciparum [19], in the experiment with Plasmodium falciparum [20] and in the experiment on Plasmodium falciparum [21] was 0.9 nM throughout.

Consider `OC(c1cc(C(F)(F)F)nc2c(C(F)(F)F)cccc12)C1CCCCN1` (centres undefined) [MEFLOQUINE], for which the IC50 in the experiment with Plasmodium falciparum [1], in the experiment on Plasmodium falciparum [2], in the experiment on Plasmodium falciparum [3], in the experiment with Plasmodium falciparum [4], in the experiment with Plasmodium falciparum [5] and in the experiment with Plasmodium falciparum [6] was 14 nM in each case. The IC50 in the experiment with Plasmodium falciparum [7], in the experiment with Plasmodium falciparum [8], in the experiment on Plasmodium falciparum [9], in the experiment on Plasmodium falciparum [22], in the experiment on Plasmodium falciparum [10] and with Plasmodium falciparum [11] was 14 nM each time. The IC50 in the experiment with Plasmodium falciparum [12], in the experiment on Plasmodium falciparum [13], in the experiment with Plasmodium falciparum [14], in the experiment on Plasmodium falciparum [15], in the experiment on Plasmodium falciparum [16] and in the experiment with Plasmodium falciparum [17] was 14 nM each time. Further, the half-inhibitory concentration (IC50) with Plasmodium falciparum [18], in the experiment on Plasmodium falciparum [19], with Plasmodium falciparum [20] and in the experiment with Plasmodium falciparum [21] was 14 nM in each case.

As for `CCCCN(CCCC)CC(O)c1cc(Cl)cc2c1-c1ccc(Cl)cc1/C2=C/c1ccc(Cl)cc1` (centres undefined) [LUMEFANTRINE], the IC50 with Plasmodium falciparum [1], in the experiment on Plasmodium falciparum [2], with Plasmodium falciparum [3], in the experiment on Plasmodium falciparum [4], with Plasmodium falciparum [5] and with Plasmodium falciparum [6] was 8 nM in each case. Besides, the IC50 in the experiment on Plasmodium falciparum [7], with Plasmodium falciparum [8], with Plasmodium falciparum [9], with Plasmodium falciparum [22], in the experiment with Plasmodium falciparum [10] and in the experiment on Plasmodium falciparum [11] was 8 nM each time. Also, the concentration for half-maximal inhibition (IC50) in the experiment with Plasmodium falciparum [12], in the experiment with Plasmodium falciparum [13], in the experiment with Plasmodium falciparum [14], in the experiment with Plasmodium falciparum [15], in the experiment with Plasmodium falciparum [16] and in the experiment with Plasmodium falciparum [17] was 8 nM each time. Moreover, the half-maximal inhibitory concentration (IC50) in the experiment with Plasmodium falciparum [18], in the experiment on Plasmodium falciparum [19], in the experiment with Plasmodium falciparum [20] and with Plasmodium falciparum [21] was 8 nM in each case.

Regarding `C=C[C@H]1CN2CC[C@H]1C[C@H]2[C@H](O)c1ccnc2ccc(OC)cc12` [QUININE], the 50% inhibitory concentration (IC50) in the experiment with Plasmodium falciparum [2] stood at 48 nM.

With `O=C1C(O)=C([C@H]2CC[C@H](c3ccc(Cl)cc3)CC2)C(=O)c2ccccc21` [ATOVAQUONE], the IC50 in the experiment with Plasmodium falciparum [1], in the experiment with Plasmodium falciparum [2], with Plasmodium falciparum [3], in the experiment with Plasmodium falciparum [4], in the experiment with Plasmodium falciparum [5] and in the experiment with Plasmodium falciparum [6] was 2.4 nM each time. The IC50 in the experiment with Plasmodium falciparum [7], in the experiment with Plasmodium falciparum [8], in the experiment on Plasmodium falciparum [9], with Plasmodium falciparum [22], in the experiment with Plasmodium falciparum [10] and in the experiment with Plasmodium falciparum [11] was 2.4 nM each time. Moreover, the IC50 in the experiment on Plasmodium falciparum [12], in the experiment on Plasmodium falciparum [13], in the experiment with Plasmodium falciparum [14], in the experiment with Plasmodium falciparum [15], in the experiment with Plasmodium falciparum [16] and in the experiment with Plasmodium falciparum [17] was 2.4 nM throughout. The 50% inhibitory concentration (IC50) in the experiment with Plasmodium falciparum [18], in the experiment with Plasmodium falciparum [19], with Plasmodium falciparum [20] and in the experiment on Plasmodium falciparum [21] was 2.4 nM in each case.

Regarding `CCNCc1cc(Nc2ccnc3cc(Cl)ccc23)ccc1O` [DESETHYL AMODIAQUINE], the 50% inhibitory concentration (IC50) in the experiment with Plasmodium falciparum [1], with Plasmodium falciparum [2], with Plasmodium falciparum [3], in the experiment on Plasmodium falciparum [4], with Plasmodium falciparum [5] and in the experiment on Plasmodium falciparum [6] was 23 nM throughout. Also, the 50% inhibitory concentration (IC50) in the experiment with Plasmodium falciparum [7], in the experiment on Plasmodium falciparum [8], with Plasmodium falciparum [9], with Plasmodium falciparum [10], with Plasmodium falciparum [11] and with Plasmodium falciparum [12] was 23 nM in each case. Besides, the IC50 in the experiment on Plasmodium falciparum [13], in the experiment with Plasmodium falciparum [14], in the experiment on Plasmodium falciparum [15], in the experiment with Plasmodium falciparum [16], in the experiment on Plasmodium falciparum [17] and in the experiment with Plasmodium falciparum [18] was 23 nM throughout. In addition, the IC50 in the experiment with Plasmodium falciparum [19], in the experiment on Plasmodium falciparum [20] and in the experiment with Plasmodium falciparum [21] was 23 nM throughout.
